Source: PubChem BioAssay AID248 (DTP/NCI, 2004)
Where “and” joins values, the source holds several entries; their conditions need not be identical. Equal values may be shown once. Inconclusive results and toxic doses are left out. Rule as the data show it: active = T/C of 150% or more; inactive = T/C below 125%.

System: L1210 leukemia ip in BDF1 mice, survival T/C
Assay: NCI In Vivo Anticancer Drug Screen. Data for tumor model L1210 Leukemia (intraperitoneal) in B6D2F1 (BDF1) mice
Settings: endpoint: mean survival time, higher = longer survival
Summary of the method: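 Read-out is survival time, reported as the treated-group measurement over the vehicle-control measurement.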

[1] = dose: 100.0 mg/kg/injection, schedule: Q01DX001 (ip), vehicle: saline
[2] = dose: 200.0 mg/kg/injection, schedule: Q01DX001 (ip), vehicle: saline
[3] = dose: 400.0 mg/kg/injection, schedule: Q01DX001 (ip), vehicle: saline
[4] = dose: 100.0 mg/kg/injection, schedule: Q01DX009 (ip), vehicle: saline with Tween-80
[5] = dose: 100.0 mg/kg/injection, schedule: Q04DX003 (ip), vehicle: saline with Tween-80
[6] = dose: 200.0 mg/kg/injection, schedule: Q01DX009 (ip), vehicle: saline with Tween-80
[7] = dose: 200.0 mg/kg/injection, schedule: Q04DX003 (ip), vehicle: saline with Tween-80
[8] = dose: 400.0 mg/kg/injection, schedule: Q04DX003 (ip), vehicle: saline with Tween-80
[9] = dose: 25.0 mg/kg/injection, schedule: Q04DX003 (ip), vehicle: saline
[10] = dose: 50.0 mg/kg/injection, schedule: Q04DX003 (ip), vehicle: saline
[11] = dose: 50.0 mg/kg/injection, schedule: Q01DX009 (ip), vehicle: saline with Tween-80

Measured: T/C

Cc1ccccc1-c1c2ccccc2c2ccccc2[n+]1[O-]
inactive: dose: 50.0 mg/kg/injection, schedule: Q01DX009 (ip), vehicle: Klucel (hydroxypropylcellulose) (HPC) 101 % of control | dose: 100.0 mg/kg/injection, schedule: Q01DX009 (ip), vehicle: Klucel (hydroxypropylcellulose) (HPC) 101 % of control | dose: 200.0 mg/kg/injection, schedule: Q01DX009 (ip), vehicle: Klucel (hydroxypropylcellulose) (HPC) 108 % of control

CC1(C)NC(C(=O)O)CS1 (configuration not stated)
inactive: [1] 101 % of control | [2] 90 % of control | [3] 95 % of control

Cc1ccc(NC(=O)N(O)C2CCCCC2C#N)cc1 (configuration not stated)
inactive: [2] 96 % of control | [3] 91 % of control

CC(=O)N[Si](C)(C)C
inactive: [1] 102 % of control | [2] 100 % of control | [3] 98 % of control

CCc1occ(C(=O)OC)c1C(=O)OC
inactive: [4] 96 % of control | [5] 95 % of control | [6] 96 % of control | [7] 94 % of control | dose: 400.0 mg/kg/injection, schedule: Q01DX009 (ip), vehicle: saline with Tween-80 100 % of control | [8] 104 % of control

FC(F)(F)c1ccc2c(c1)N(CCCN1CCN(CCOCCCl)CC1)c1ccccc1S2
inactive: dose: 0.19 mg/kg/injection, schedule: Q01DX009 (ip), vehicle: saline 104 % of control | dose: 0.39 mg/kg/injection, schedule: Q01DX009 (ip), vehicle: saline 94 % of control | dose: 0.78 mg/kg/injection, schedule: Q01DX009 (ip), vehicle: saline 98 % of control | dose: 1.17 mg/kg/injection, schedule: Q04DX003 (ip), vehicle: saline 101 % of control | dose: 1.56 mg/kg/injection, schedule: Q01DX009 (ip), vehicle: saline 107 % of control | dose: 2.34 mg/kg/injection, schedule: Q04DX003 (ip), vehicle: saline 95 % of control | dose: 3.12 mg/kg/injection, schedule: Q01DX009 (ip), vehicle: saline 89 % of control | dose: 4.68 mg/kg/injection, schedule: Q04DX003 (ip), vehicle: saline 98 % of control | dose: 6.25 mg/kg/injection, schedule: Q04DX003 (ip), vehicle: saline 108 % of control | dose: 9.9 mg/kg/injection, schedule: Q01DX001 (ip), vehicle: saline 97 % of control | dose: 12.5 mg/kg/injection, schedule: Q04DX003 (ip), vehicle: saline 119 % of control | dose: 15.0 mg/kg/injection, schedule: Q01DX001 (ip), vehicle: saline 102 % of control | dose: 22.5 mg/kg/injection, schedule: Q01DX001 (ip), vehicle: saline 103 % of control | [9] 122 % of control | [10] 90 % of control

Brc1ccc2c(c1)CCC2
inactive: dose: 50.0 mg/kg/injection, schedule: Q01DX001 (ip), vehicle: saline 93 % of control | [1] 106 % of control and 88 % of control | [2] 94 % of control and 95 % of control | [3] 97 % of control and 98 % of control

Cc1ccc2nn(-c3ccc(O)cc3)nc2c1
inactive: dose: 100.0 mg/kg/injection, schedule: Q01DX001 (ip), vehicle: carboxymethylcellulose (CMC) 98 % of control | dose: 200.0 mg/kg/injection, schedule: Q01DX001 (ip), vehicle: carboxymethylcellulose (CMC) 93 % of control | dose: 400.0 mg/kg/injection, schedule: Q01DX001 (ip), vehicle: carboxymethylcellulose (CMC) 96 % of control

CCOC(=O)/C=C(\C)Nc1ccc(NC(C)=O)cc1
inactive: dose: 50.0 mg/kg/injection, schedule: Q01DX009 (ip), vehicle: water 107 % of control | dose: 100.0 mg/kg/injection, schedule: Q01DX009 (ip), vehicle: water 121 % of control | dose: 100.0 mg/kg/injection, schedule: Q04DX003 (ip), vehicle: water 96 % of control | dose: 200.0 mg/kg/injection, schedule: Q01DX009 (ip), vehicle: water 98 % of control | dose: 200.0 mg/kg/injection, schedule: Q04DX003 (ip), vehicle: water 96 % of control | dose: 400.0 mg/kg/injection, schedule: Q01DX009 (ip), vehicle: water 100 % of control | dose: 400.0 mg/kg/injection, schedule: Q04DX003 (ip), vehicle: water 101 % of control

CSc1cc(-c2ccc(Cl)cc2)s[s+]1
inactive: dose: 12.5 mg/kg/injection, schedule: Q01DX009 (ip), vehicle: saline with Tween-80 95 % of control | dose: 25.0 mg/kg/injection, schedule: Q01DX009 (ip), vehicle: saline with Tween-80 90 % of control | dose: 25.0 mg/kg/injection, schedule: Q04DX003 (ip), vehicle: saline with Tween-80 100 % of control | [11] 97 % of control | dose: 50.0 mg/kg/injection, schedule: Q04DX003 (ip), vehicle: saline with Tween-80 103 % of control | [5] 98 % of control and 86 % of control

c1ccc(N/N=C(\Oc2ccccc2)c2ccccc2)cc1
inactive: [5] 93 % of control | [7] 96 % of control | [8] 96 % of control

O=c1c2ccccc2[nH]c2ccccc12
inactive: dose: 50.0 mg/kg/injection, schedule: Q04DX003 (ip), vehicle: Klucel (hydroxypropylcellulose) (HPC) 103 % of control | dose: 100.0 mg/kg/injection, schedule: Q01DX001 (ip), vehicle: Klucel (hydroxypropylcellulose) (HPC) 95 % of control | dose: 100.0 mg/kg/injection, schedule: Q01DX Z (ip), vehicle: carboxymethylcellulose (CMC) 96 % of control | dose: 100.0 mg/kg/injection, schedule: Q04DX003 (ip), vehicle: Klucel (hydroxypropylcellulose) (HPC) 101 % of control | dose: 200.0 mg/kg/injection, schedule: Q01DX001 (ip), vehicle: Klucel (hydroxypropylcellulose) (HPC) 98 % of control | dose: 200.0 mg/kg/injection, schedule: Q01DX Z (ip), vehicle: carboxymethylcellulose (CMC) 103 % of control | dose: 200.0 mg/kg/injection, schedule: Q04DX003 (ip), vehicle: Klucel (hydroxypropylcellulose) (HPC) 106 % of control and 97 % of control | dose: 400.0 mg/kg/injection, schedule: Q01DX001 (ip), vehicle: Klucel (hydroxypropylcellulose) (HPC) 95 % of control | dose: 400.0 mg/kg/injection, schedule: Q01DX Z (ip), vehicle: carboxymethylcellulose (CMC) 105 % of control | dose: 400.0 mg/kg/injection, schedule: Q04DX003 (ip), vehicle: Klucel (hydroxypropylcellulose) (HPC) 103 % of control and 96 % of control

CCCCCCCCCCC(=O)[O][Hg][c]1ccccc1
inactive: dose: 9.38 mg/kg/injection, schedule: Q01DX001 (ip), vehicle: saline 98 % of control | dose: 18.75 mg/kg/injection, schedule: Q01DX001 (ip), vehicle: saline 93 % of control

Cn1c(=O)c2c(ncn2C)n(C)c1=O (tested in a mixture with another compound)
inactive: [5] 98 % of control | [7] 101 % of control | [8] 114 % of control

CN(C)C1CC1c1ccccc1 (configuration not stated)
inactive: dose: 6.25 mg/kg/injection, schedule: Q01DX009 (ip), vehicle: saline 106 % of control | dose: 12.5 mg/kg/injection, schedule: Q01DX009 (ip), vehicle: saline 95 % of control | dose: 25.0 mg/kg/injection, schedule: Q01DX009 (ip), vehicle: saline 95 % of control | [9] 100 % of control | dose: 50.0 mg/kg/injection, schedule: Q01DX009 (ip), vehicle: saline 106 % of control | [10] 100 % of control | dose: 100.0 mg/kg/injection, schedule: Q04DX003 (ip), vehicle: saline 100 % of control

CC(=O)NS(=O)(=O)c1ccc(NC(=O)c2ccccc2C(=O)O)cc1
inactive: [11] 102 % of control | [4] 100 % of control | [5] 95 % of control | [6] 96 % of control | [7] 93 % of control
